Several values for one entry are separate records, joined by “and”; a condition that tells them apart may be missing. Equal values may be shown once. Each block holds one molecule with its values, some of them ahead of it. Bridge positions count the residues as written; N and C are the ends. Square brackets hold non-standard residues; d marks the D form. Ends that are not written are not given here. Peptide text beside a SMILES is read from it. Phe(4-COOH) = N[C@@H](Cc1ccc(C(=O)O)cc1)C(=O)O; R8 = C=CCCCCCC[C@@](C)(N)C(=O)O; Cba = N[C@@H](CC1CCC1)C(=O)O; S5 = C=CCCC[C@](C)(N)C(=O)O
Tests used:
[1] = tested on: DOHH-2; experiment: WST-1 / MTT cell viability, DOHH-2; type: cell-based, human; details: for IC50: Homo sapiens, DOHH-2, 72 h
Experimental: Initially, various DOHH-2 cell numbers were plated and evaluated 3-7 days later to determine the optimal number of cells to be plated and treatment duration.
(§1) A drug combination index plot was used to assess the synergistic, additive, or antagonistic properties of each combination treatment. […] Combination index (CI) values were calculated using the CompuSyn software. The data were expressed as log(CI).
The anticancer activity of the combination treatment was assessed based on the order of addition of the drugs.

[2] = MCF-7 breast cancer xenograft study, body weight and deaths; type: in vivo, mice; details: for mice died during treatment: 10 mice per group
From the text: A negative control stapled peptide.

[3] = tested on: MV4-11; experiment: WST-1 / MTT cell viability, MV4-11; details: MV4-11, sequential treatment, 72 hrs
Experimental: Initially, various MV4-11 cell numbers were plated and evaluated 3-7 days later to determine the optimal number of cells to be plated and treatment duration.
Cells were evaluated for viability by WST-1 assay or MTT assay 3-7 days after beginning treatment.
as §1

[4] = Circular dichroism (CD) analysis of alpha-helicity; type: physicochemical; details: for Molar Ellipticity TFE − Molar Ellipticity Benign / Molar Ellipticity 50% TFE (222 in 50% TFE) / Molar Ellipticity Benign (222 in 0% TFE): 222 nm; for Molar Ellipticity 50% TFE (222 in 50% TFE): CD buffer with 50% TFE; for Molar Ellipticity 50% TFE (222 in 50% TFE) / Molar Ellipticity Benign (222 in 0% TFE): 0.05 mg/ml, 4° C.; for Molar Ellipticity Benign (222 in 0% TFE): benign CD buffer (20 mM phosphoric acid, pH 2); for % Helix benign compared to 50% TFE parent (CD): benign buffer
Experimental: Peptide solutions were analyzed by CD spectroscopy using a Jasco J-815 spectropolarimeter (Jasco Inc., Easton, Md.) with the Jasco Spectra Manager Ver. 2 system software. A Peltier temperature controller was used to maintain temperature control of the optical cell. Results are expressed as mean molar ellipticity (deg cm^2 dmol^−1) as calculated from the equation [0]=θobs·MRW/10*l*c where θobs is the observed ellipticity in millidegrees, MRW is the mean residue weight of the peptide (peptide molecular weight/number of residues), 1 is the optical path length of the cell in centimeters, and c is the peptide concentration in mg/ml. Peptide concentrations were determined by amino acid analysis. Stock solutions of peptides were prepared in benign CD buffer (20 mM phosphoric acid, pH 2). The stocks were used to prepare peptide solutions of 0.05 mg/ml in either benign CD buffer or CD buffer with 50% trifluoroethanol (TFE) for analyses in a 10 mm pathlength cell. Variable wavelength measurements of peptide solutions were scanned at 4° C. from 195 to 250 nm, in 0.2 nm increments, and a scan rate 50 nm per minute. The average of six scans was reported.

[5] = tested on: SJSA-1; experiment: Cell viability assay (MTT), SJSA-1; details: read-out: SJSA-1 EC50 (72 h); 72 h, MTT
[6] = tested on: RKO; experiment: Cell viability assay (MTT), RKO; details: read-out: RKO EC50 (72 h)
[7] = tested on: Caspase 3; experiment: Caspase 3 detection assay in SJSA1 cells; type: cell-based; details: SJSA1, 48 h, Caspase 3 activation over DMSO-treated cells
[8] = tested on: SJSA-1 cells; experiment: Cell lysis by peptidomimetic macrocycles (LDH release); type: cell-based; details: SJSA-1, 1 h
In short: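 SJSA-1 cells plated the day before, switched to RPMI with 1% FBS, then exposed 1 h at 37 °C to macrocycle at final 50 μM to 6.25 μM in 0.5% DMSO. LDH released into the supernatant was measured by kit. Controls: 0.5% DMSO (non-lytic), 10 μM melittin and 1% Triton X-100 (lytic).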

[9] = biological target: T1, MDMX (In-house, 40 kD) (UniProt O15151); experiment: competitive fluorescence polarization, displacement of FAM-labeled linear peptide from MDMX; grade decoded by the scale of Table 4
T1 sequence (looked up): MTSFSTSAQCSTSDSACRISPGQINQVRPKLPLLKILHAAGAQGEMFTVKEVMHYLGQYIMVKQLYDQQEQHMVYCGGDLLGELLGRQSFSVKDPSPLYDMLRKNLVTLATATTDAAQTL

[10] = biological target: MDM2 (In-house, 41 kD) (UniProt Q00987); experiment: competitive fluorescence polarization, displacement of FAM-labeled linear peptide from MDM2; grade decoded by the scale of Table 4
[11] = DOHH-2, sequential treatment, 72 hrs

Chain of MDM2 (In-house, 41 kD) (Q00987 1-125 limits assumed): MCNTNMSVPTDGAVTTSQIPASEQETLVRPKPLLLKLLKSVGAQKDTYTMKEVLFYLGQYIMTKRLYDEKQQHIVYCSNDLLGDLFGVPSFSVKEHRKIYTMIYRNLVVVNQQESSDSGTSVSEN

Molecule: O=P1(N(CCCl)CCCl)NCCCO1 (stereo not shown) [CTX, cyclophosphamide, reference compound]
order of addition: effect on cell growth, AP1 and CTX [1, 11]: suppressed DOHH-2 cell growth with or without AP1 | IC50 ([1]; CTX + 0.07 μM AP1, DOHH-2, 72 hours): 411 µM | IC50 ([1]; CTX + 0.2 μM AP1, DOHH-2, 72 hours): 172 µM | IC50 ([1]; CTX + 0.6 μM AP1, DOHH-2, 72 hours): 258 µM | IC50 ([1]; CTX alone): 1980 µM

Molecule: CC[C@H](C)[C@H](NC(=O)[C@H](C)NC(=O)[C@H](C)NC(=O)[C@]1(C)CCCC=CCCCCCC[C@@](C)(NC(=O)[C@H](Cc2ccccc2)NC(=O)[C@@H](NC(=O)[C@H](CC(C)C)NC(C)=O)[C@@H](C)O)C(=O)N[C@@H](CCC(=O)O)C(=O)N[C@@H](Cc2ccc(C(=O)O)cc2)C(=O)N[C@@H](Cc2c[nH]c3ccccc23)C(=O)N[C@@H](C)C(=O)N[C@@H](CCC(N)=O)C(=O)N[C@@H](CC2CCC2)C(=O)N1)C(=O)N[C@H](C)C(N)=O [SP249] (Ac-LTF[R8]E[Phe(4-COOH)]WAQ[Cba][S5]AAI[dA]-NH2; staple 4-11)
mice died during treatment ([2]; […] three times per week iv): 4

Molecule: CC[C@]1(O)C[C@H]2CN(CCc3c([nH]c4ccccc34)[C@@](C(=O)OC)(c3cc4c(cc3OC)N(C=O)[C@H]3[C@@](O)(C(=O)OC)[C@H](OC(C)=O)[C@]5(CC)C=CCN6CC[C@]43[C@@H]65)C2)C1 [VCR, vincristine, reference compound]
order of addition: effect on cell growth, AP1 and VCR [1, 11]: suppressed DOHH-2 cell growth with or without AP1

Molecule: Nc1ncn([C@@H]2O[C@H](CO)[C@@H](O)[C@H]2O)c(=O)n1 [azacitidine, reference compound]
order of addition: effect on cell growth, AP1 and azacitidine [3]: suppressed MV4-11 cell growth with or without AP1

Molecule: SP154 (LTFAEYWAQAASAA; not fully specified)
% BW Change ([2]; 30 mg/kg 3x/wk iv, Days 18-39): +5.7% | No. with ≥10% BW Loss ([2]; 30 mg/kg 3x/wk iv, Days 18-39): 0/10 | No. with ≥20% BW Loss or death ([2]; 30 mg/kg 3x/wk iv, Days 18-39): 0/10 | tolerability of dosing regimen ([2]; 30 mg/kg three times per week iv): well-tolerated | No. with ≥10% BW Loss ([2]; 40 mg/kg 2x/wk iv, Days 18-39): 0/10 | No. with ≥20% BW Loss or death ([2]; 40 mg/kg 2x/wk iv, Days 18-39): 2/10 (2 deaths) | tolerability of dosing regimen ([2]; 40 mg/kg twice a week iv): not tolerable | mice died during treatment ([2]; 40 mg/kg twice a week iv): 2

Continued, in another order:

% Helix 50% TFE compared to 50% TFE parent (CD) [4]: 148.2% | Molar Ellipticity TFE − Molar Ellipticity Benign [4]: −21407.1 deg cm^2 dmol^−1 | Molar Ellipticity 50% TFE (222 in 50% TFE) [4]: −21509.7 deg cm^2 dmol^−1 | Molar Ellipticity Benign (222 in 0% TFE) [4]: −102.6 deg cm^2 dmol^−1 | % Helix benign compared to 50% TFE parent (CD) [4]: 0.7% | EC50 [5]: < 5 µM
Molecule: CCCC[C@H](NC(=O)[C@H](C)NC(=O)[C@H](C)NC(=O)[C@]1(C)CCC/C=C/CCCCCC[C@@](C)(NC(=O)[C@H](Cc2ccccc2)NC(=O)[C@@H](NC(=O)[C@H](CC(C)C)NC(C)=O)[C@@H](C)O)C(=O)N[C@@H](C)C(=O)N[C@@H](Cc2ccc(O)cc2)C(=O)N[C@@H](Cc2c[nH]c3ccccc23)C(=O)N[C@@H](C)C(=O)N[C@@H](CCC(N)=O)C(=O)N[C@@H](CC(C)C)C(=O)N1)C(=O)N[C@@H](C)C(N)=O [compound 69]
EC50 [6]: < 5 µM | caspase 0.3 μM [7]: 4.34 | caspase 1 μM [7]: 9.51 | caspase 3 μM [7]: 16.39 | caspase 10 μM [7]: 26.59 | caspase 30 μM [7]: 26.11 | 6.25 μM % Lysed cells (1 h LDH) [8]: 1% | 25 μM % Lysed cells (1 h LDH) [8]: −0.5% | 50 μM % Lysed cells (1 h LDH) [8]: 5%

% Helix 50% TFE compared to 50% TFE parent (CD) [4]: 123.7% | Molar Ellipticity TFE − Molar Ellipticity Benign [4]: −17835.9 deg cm^2 dmol^−1 | Molar Ellipticity 50% TFE (222 in 50% TFE) [4]: −17957 deg cm^2 dmol^−1 | Molar Ellipticity Benign (222 in 0% TFE) [4]: −121.2 deg cm^2 dmol^−1 | % Helix benign compared to 50% TFE parent (CD) [4]: 0.8% | EC50 [5]: < 5 µM
Molecule: CC[C@H](C)[C@H](NC(=O)[C@H](C)NC(=O)[C@H](C)NC(=O)[C@]1(C)CCC/C=C/CCCCCC[C@@](C)(NC(=O)[C@H](Cc2ccccc2)NC(=O)[C@@H](NC(=O)[C@H](CC(C)C)NC(C)=O)[C@@H](C)O)C(=O)N[C@@H](C)C(=O)N[C@@H](Cc2ccc(O)cc2)C(=O)N[C@@H](Cc2c[nH]c3ccccc23)C(=O)N[C@@H](C)C(=O)N[C@@H](CCC(N)=O)C(=O)N[C@@H](CC(C)C)C(=O)N1)C(=O)N[C@H](C)C(N)=O [compound 71]
EC50 [6]: < 5 µM | caspase 0.3 μM [7]: 0.95 | caspase 1 μM [7]: 1.02 | caspase 3 μM [7]: 3.68 | caspase 10 μM [7]: 14.72 | caspase 30 μM [7]: 23.52 | 6.25 μM % Lysed cells (1 h LDH) [8]: 0% | 25 μM % Lysed cells (1 h LDH) [8]: 0% | 50 μM % Lysed cells (1 h LDH) [8]: 0%

IC50 [9]: > 1 µM | IC50 [10]: > 0.1 µM and < 1 µM
Molecule: SP752, Ac-t$r5wya$r5f4CF3ekllr-NH2 (peptide)

IC50 [9]: > 1 µM | IC50 [10]: > 0.01 µM and < 0.1 µM
Molecule: SP753, Ac-tawy$r5nf4CF3e$r5llr-NH2 (peptide)

IC50 [9]: > 1 µM | IC50 [10]: > 0.1 µM and < 1 µM
Molecule: SP754, Ac-tawya$r5f4CF3ek$r5lr-NH2 (peptide)

IC50 [9]: > 1 µM | IC50 [10]: < 0.01 µM
Molecule: SP755, Ac-tawyanf4CF3e$r5llr$r5a-NH2 (peptide)

IC50 [9]: > 1 µM | IC50 [10]: > 0.01 µM and < 0.1 µM
Molecule: SP756, Ac-t$s8wyanf4CF3e$r5llr-NH2 (peptide)

IC50 [9]: > 1 µM | IC50 [10]: < 0.01 µM
Molecule: SP757, Ac-tawy$s8nf4CF3ekll$r5a-NH2 (peptide)

— patent publication US20200369728A1, “PEPTIDOMIMETIC MACROCYCLES AND USES THEREOF” (Aileron Therapeutics, Inc., priority 2015, published 2020)
